Measurements from paper PMC2901852 (Chemical biology & drug design, 2009).
Like-named read-outs stand apart in the source and are kept apart here.

How the values were obtained:
Human recombinant MMP-2 = target: T1, Human recombinant MMP-2 (Homo sapiens, UniProt P08253); test: Inhibition of MMP-2, fluorogenic substrate hydrolysis; format: biochemical
T1 sequence (P08253 110-660): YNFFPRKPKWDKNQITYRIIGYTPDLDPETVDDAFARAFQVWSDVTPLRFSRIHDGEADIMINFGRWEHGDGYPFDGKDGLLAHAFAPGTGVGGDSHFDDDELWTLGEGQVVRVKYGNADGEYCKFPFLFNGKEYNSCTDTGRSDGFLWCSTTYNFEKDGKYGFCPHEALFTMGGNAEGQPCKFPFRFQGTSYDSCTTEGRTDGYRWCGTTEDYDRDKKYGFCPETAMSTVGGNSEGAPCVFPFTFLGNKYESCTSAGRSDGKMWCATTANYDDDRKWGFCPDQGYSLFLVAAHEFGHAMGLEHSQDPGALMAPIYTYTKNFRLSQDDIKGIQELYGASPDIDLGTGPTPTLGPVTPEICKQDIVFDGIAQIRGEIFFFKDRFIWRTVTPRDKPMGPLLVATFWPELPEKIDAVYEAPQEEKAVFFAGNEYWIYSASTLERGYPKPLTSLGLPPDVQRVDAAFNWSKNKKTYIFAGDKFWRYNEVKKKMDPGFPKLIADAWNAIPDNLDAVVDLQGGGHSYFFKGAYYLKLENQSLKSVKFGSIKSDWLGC

Human recombinant MMP-9 = Human recombinant MMP-9 (Homo sapiens, UniProt P14780); test: Inhibition of MMP-9, fluorogenic substrate hydrolysis; format: biochemical
[1] = target: catalytic domain of human recombinant MMP-14 (MT1-MMP) (Homo sapiens, UniProt P50281); test: Inhibition of MMP-14 catalytic domain, fluorogenic substrate hydrolysis; format: biochemical
[2] = target: T2, catalytic domain of human recombinant MMP-1 (Homo sapiens, UniProt P03956); test: Inhibition of MMP-1 catalytic domain, fluorogenic substrate hydrolysis; format: biochemical
T2 sequence (P03956 100-269 limits assumed): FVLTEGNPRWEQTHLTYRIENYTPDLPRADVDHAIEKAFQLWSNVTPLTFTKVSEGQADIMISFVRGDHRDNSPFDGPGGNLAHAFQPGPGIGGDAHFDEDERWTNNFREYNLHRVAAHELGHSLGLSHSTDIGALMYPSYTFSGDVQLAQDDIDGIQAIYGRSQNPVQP

[3] = target: catalytic domain of human recombinant MMP-3 (Homo sapiens, UniProt P08254); test: Inhibition of MMP-3 catalytic domain, fluorogenic substrate hydrolysis; format: biochemical
[4] = target: T3, Human recombinant active MMP-7 (Homo sapiens, UniProt P09237); test: Inhibition of MMP-7, fluorogenic substrate hydrolysis; format: biochemical
T3 sequence (P09237 95-267): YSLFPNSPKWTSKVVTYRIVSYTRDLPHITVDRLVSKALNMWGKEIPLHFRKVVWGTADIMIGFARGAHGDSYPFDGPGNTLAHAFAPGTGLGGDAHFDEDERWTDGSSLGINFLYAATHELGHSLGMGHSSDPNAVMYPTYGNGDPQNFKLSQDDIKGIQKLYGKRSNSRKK

[5] = In vitro metabolism, incubation with rat liver microsomes; format: in vitro ADME; settings: more metabolically stable than SB-3CT
[6] = 15-min incubation with rat liver microsomes; cited from earlier work

Sequence of catalytic domain of human recombinant MMP-3 (P08254 100-272 limits assumed): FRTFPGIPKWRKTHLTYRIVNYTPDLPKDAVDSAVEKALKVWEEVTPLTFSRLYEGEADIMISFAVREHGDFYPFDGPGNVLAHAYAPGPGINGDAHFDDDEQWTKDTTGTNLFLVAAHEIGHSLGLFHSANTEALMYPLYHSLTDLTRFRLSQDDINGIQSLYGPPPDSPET
Sequence of Human recombinant MMP-9 (P14780 94-707): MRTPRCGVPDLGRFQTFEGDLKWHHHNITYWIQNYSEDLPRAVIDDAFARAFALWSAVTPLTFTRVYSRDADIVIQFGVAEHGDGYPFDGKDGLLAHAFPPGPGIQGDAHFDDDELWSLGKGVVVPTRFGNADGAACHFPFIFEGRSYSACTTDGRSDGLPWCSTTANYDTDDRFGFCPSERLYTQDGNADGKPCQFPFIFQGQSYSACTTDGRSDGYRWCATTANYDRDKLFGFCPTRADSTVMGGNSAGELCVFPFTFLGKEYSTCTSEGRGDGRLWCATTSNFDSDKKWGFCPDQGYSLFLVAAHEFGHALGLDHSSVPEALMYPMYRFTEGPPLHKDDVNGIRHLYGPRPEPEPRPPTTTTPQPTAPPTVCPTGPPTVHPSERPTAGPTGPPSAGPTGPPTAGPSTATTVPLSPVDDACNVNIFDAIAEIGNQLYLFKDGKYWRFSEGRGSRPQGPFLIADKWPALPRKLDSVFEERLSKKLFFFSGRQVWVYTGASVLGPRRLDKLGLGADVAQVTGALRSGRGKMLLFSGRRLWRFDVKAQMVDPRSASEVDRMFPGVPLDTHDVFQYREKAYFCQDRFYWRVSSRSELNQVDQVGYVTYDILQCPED

Which Ki (Human recombinant MMP-2) does the source give for `C[C@H]([C@H]1CS1)S(=O)(=O)c1ccc(Oc2ccccc2)cc1` [Compound 5c, (2R)-2-(1R-(4-Phenoxyphenylsulfonyl)ethyl)thiirane] here?
Its Ki is 4.1 ± 0.1 µM.

Which results are given for `C[C@@H]([C@H]1C[S+]1[O-])S(=O)(=O)c1ccc(Oc2ccccc2)cc1` (stereo partly drawn) [Compound 12, (2R)-2-(1S-(4-Phenoxyphenylsulfonyl)ethyl)thiirane S-oxide]?
Ki (Human recombinant MMP-2; MMP-2): 20 µM; inhibition at a fixed 60 μM inhibitor concentration (Human recombinant MMP-9; MMP-9, 60 μM): 30%; inhibition at a fixed 60 μM inhibitor concentration ([1]; MMP-14, 60 μM): 0%

Which Ki (Human recombinant MMP-2; MMP-2) does the source give for `CC(C1CS1)S(=O)(=O)c1ccc(Oc2ccc(O)cc2)cc1` (centres unmarked) [Compound 13b] here?
Its Ki is 0.22 ± 0.09 µM.

What about the Ki (Human recombinant MMP-9; MMP-9) of the same molecule?
Its Ki is 1.9 ± 0.7 µM.

And the Ki ([1]; MMP-14cat)?
Its Ki is 2.1 ± 0.7 µM.

What about the inhibition in words ([2]; MMP-1, inhibitor concentrations up to 60 μM) of the same molecule?
The inhibition in words was “Marginal to no inhibition”.

What about the inhibition in words ([3]; MMP-3, inhibitor concentrations up to 60 μM) of the same molecule?
The inhibition in words was “Marginal to no inhibition”.

What about the inhibition in words ([4]; MMP-7, inhibitor concentrations up to 60 μM) of the same molecule?
Its inhibition in words is “Marginal to no inhibition”.

For `C[C@@H]([C@H]1CS1)S(=O)(=O)c1ccc(Oc2ccccc2)cc1` [Compound 5b, (2R)-2-(1S-(4-Phenoxyphenylsulfonyl)ethyl)thiirane], which Ki (Human recombinant MMP-2; MMP-2) is on record?
Its Ki is 0.18 ± 0.03 µM.

And the “10^–3 kon” value (Human recombinant MMP-2; MMP-2, slow-binding onset rate constant, values printed as 10^–3 kon)?
The value was 3.3 ± 0.1 M/second.

And the “10^4 koff” value (Human recombinant MMP-2; MMP-2, values printed as 10^4 koff)?
Its value is 5.9 ± 1.0 second.

And the Ki (Human recombinant MMP-9; MMP-9)?
The Ki was 3.5 ± 0.2 µM.

And the “10^4 koff” value (Human recombinant MMP-9; MMP-9, values printed as 10^4 koff)?
The value was 9.0 ± 0.6 second.

And the “10^–3 kon” value (Human recombinant MMP-9; MMP-9, values printed as 10^–3 kon)?
The value was 0.26 ± 0.01 M/second.

What about the Ki ([1]; MMP-14cat) of the same molecule?
Its Ki is 0.74 ± 0.17 µM.

What about the “10^4 koff” value ([1]; MMP-14cat, values printed as 10^4 koff) of the same molecule?
Its value is 8.9 ± 2.1 second.

What about the “10^–3 kon” value ([1]; MMP-14cat, values printed as 10^–3 kon) of the same molecule?
The value was 1.2 ± 0.1 M/second.

What about the Ki ([2]; read-out: Inhibition (Ki column), MMP-1cat, up to 60 μM) of the same molecule?
The Ki was > 60 µM.

And the “inhibition at 60 µM” value ([3]; MMP-3cat, 60 μM inhibitor)?
The value was 8% Inhibition at 60 μM.

And the Ki ([4]; read-out: Inhibition (Ki column), MMP-7, up to 60 μM)?
Its Ki is > 60 µM.

And the “Metabolic stability relative to SB-3CT” value [5]?
The value was > 50 fold.

For `C[C@H]([C@@H]1CS1)S(=O)(=O)c1ccc(Oc2ccccc2)cc1` [Compound 5d, (2S)-2-(1R-(4-Phenoxyphenylsulfonyl)ethyl)thiirane], which Ki (Human recombinant MMP-2) is on record?
The Ki was 0.39 ± 0.03 µM.

And the koff (Human recombinant MMP-2; read-out: 10^4 koff)?
Its koff is 0.00081 ± 6e-05 s⁻¹.

And the kon (Human recombinant MMP-2; read-out: 10^–3 kon)?
The kon was 2100 ± 100 M⁻¹ s⁻¹.

What about the Ki (Human recombinant MMP-9) of the same molecule?
The Ki was 3.3 ± 0.2 µM.

And the koff (Human recombinant MMP-9; read-out: 10^4 koff)?
Its koff is 0.00072 ± 4e-05 s⁻¹.

What about the kon (Human recombinant MMP-9; read-out: 10^–3 kon) of the same molecule?
The kon was 220 ± 10 M⁻¹ s⁻¹.

And the Ki [1]?
The Ki was 2.1 ± 0.2 µM.

And the koff ([1]; read-out: 10^4 koff)?
Its koff is 0.00095 ± 9e-05 s⁻¹.

What about the kon ([1]; read-out: 10^–3 kon) of the same molecule?
The kon was 460 ± 10 M⁻¹ s⁻¹.

And the Ki [2]?
Its Ki is > 60 µM.

What about the inhibition at 60 µM ([3]; read-out: Inhibition at 60 μM) of the same molecule?
The inhibition at 60 µM was 9%.

And the Ki [4]?
The Ki was > 60 µM.

And the “Metabolic stability relative to SB-3CT” value [5]?
Its value is > 50 fold.

For `O=S(=O)(CC1CS1)c1ccc(Oc2ccccc2)cc1` (centres unmarked) [Compound 1, 2-(4-phenoxyphenylsulfonylmethyl)thiirane], which compound remaining [6] is on record?
The compound remaining was 0.5%.

With `C[C@@H]([C@@H]1CS1)S(=O)(=O)c1ccc(Oc2ccccc2)cc1` [Compound 5a, (2S)-2-(1S-(4-Phenoxyphenylsulfonyl)ethyl)thiirane] as the molecule, how does the Ki (Human recombinant MMP-2; MMP-2, linear competitive inhibitors) read?
Its Ki is 7.2 ± 0.1 µM.
